Assay results taken from ChEMBL document CHEMBL1201862, “PubChem BioAssay data set” (2004).
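Where inhibition never reached the appropriate level, the endpoint shown equals the highest concentration tested. Otherwise, values were interpolated linearly from a five-concentration, 48-hour dose response in 96-well plates. GI50 marks 50% less growth.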 Calls of active or inactive are those of the source. Cut-off read from the data, not from the text of the source: active = GI50 up to about 1.1 µM and inactive = higher.

Key:
Assay in all cases: growth of human tumour cells (NCI), 48 h
LXFL 529 = tested on: LXFL 529
DLD-1 = tested on: DLD-1
KM-20L2 = tested on: KM-20L2
HOP-18 = tested on: HOP-18
DMS-273 = tested on: DMS-273
SNB-78 = tested on: SNB-78
DMS-114 = tested on: DMS-114
RXF 631 = tested on: RXF 631
XF498 = tested on: XF498

For `O=c1c2cc3c(cc2c2cccc4c2n1CCC4)OCO3`, the GI50 (LXFL 529) was 37.5 µM (inactive), the GI50 (DLD-1) was 26.8 µM (inactive) and the GI50 (KM-20L2) was 45.7 µM (inactive). The GI50 (HOP-18) was 49.5 µM (inactive), the GI50 (DMS-273) was 28.1 µM (inactive) and the GI50 (SNB-78) was 68.5 µM (inactive).

`N#CC(C(=N/NC(N)=S)/C(=N\NC(N)=S)C(C#N)c1ccccc1)c1ccccc1` (centres undefined) was tested, and the GI50 (LXFL 529) was > 10 µM (inactive), the GI50 (DLD-1) was > 10 µM (inactive) and the GI50 (DMS-114) was > 10 µM (inactive). For the same compound, the GI50 (RXF 631) was > 10 µM (inactive), the GI50 (KM-20L2) was > 10 µM (inactive) and the GI50 (HOP-18) was > 10 µM (inactive). For the same compound, the GI50 (DMS-273) was > 10 µM (inactive), the GI50 (SNB-78) was > 10 µM (inactive) and the GI50 (XF498) was > 10 µM (inactive).

`C/C(=N\NC(=S)N1CCCCCC1)c1nccnc1C` was tested, and the GI50 (LXFL 529) was < 0.01 µM (active), the GI50 (DLD-1) was 1.42 µM (inactive) and the GI50 (DMS-114) was < 0.01 µM (active). The GI50 (KM-20L2) was < 0.01 µM (active), the GI50 (HOP-18) was 0.617 µM (active) and the GI50 (DMS-273) was < 0.01 µM (active). The GI50 (SNB-78) was 0.885 µM (active) and the GI50 (XF498) was 1.43 µM (inactive).

For `CCCCCCCCCCCCCC(=O)NCC(OCC)OCC`, the GI50 (LXFL 529) was > 100 µM (inactive), the GI50 (DLD-1) was > 100 µM (inactive) and the GI50 (DMS-114) was > 100 µM (inactive). For the same compound, the GI50 (KM-20L2) was > 100 µM (inactive), the GI50 (HOP-18) was > 100 µM (inactive) and the GI50 (DMS-273) was > 100 µM (inactive). The GI50 (SNB-78) was > 100 µM (inactive) and the GI50 (XF498) was > 100 µM (inactive).

In the case of `O=C1C=C(Nc2ccccc2C(=O)c2ccccc2)c2ccccc2C1=O`, the GI50 (LXFL 529) is reported as > 100 µM (inactive), the GI50 (DLD-1) is reported as > 100 µM (inactive) and the GI50 (DMS-114) is reported as 36.1 µM (inactive). For the same compound, the GI50 (KM-20L2) was > 100 µM (inactive), the GI50 (HOP-18) was > 100 µM (inactive) and the GI50 (DMS-273) was > 100 µM (inactive). For the same compound, the GI50 (SNB-78) was > 100 µM (inactive).

In the case of `COC(=O)C1=C(c2cc(OC)c(OC)c(OC)c2)O[C@H](c2ccc3c(c2)OCO3)[C@H]1COC(C)=O`, the GI50 (LXFL 529) is reported as 20.3 µM (inactive), the GI50 (DLD-1) is reported as 26.3 µM (inactive) and the GI50 (RXF 631) is reported as 42.3 µM (inactive). For the same compound, the GI50 (KM-20L2) was 30.3 µM (inactive), the GI50 (HOP-18) was 26.7 µM (inactive) and the GI50 (DMS-273) was 26.6 µM (inactive). The GI50 (SNB-78) was 26.7 µM (inactive) and the GI50 (XF498) was 33.6 µM (inactive).

With `CN1CCc2ccccc2C(C(=O)c2ccc3c(c2)OCO3)C1=O` (centres undefined) the GI50 (LXFL 529) was > 100 µM (inactive), the GI50 (DLD-1) was > 100 µM (inactive) and the GI50 (DMS-114) was 39.3 µM (inactive). The GI50 (RXF 631) was > 100 µM (inactive), the GI50 (KM-20L2) was > 100 µM (inactive) and the GI50 (HOP-18) was > 100 µM (inactive). For the same compound, the GI50 (DMS-273) was > 100 µM (inactive) and the GI50 (XF498) was 70.8 µM (inactive).

In the case of `O=C(CCc1nnc2s/c(=C\c3ccc(Cl)cc3Cl)c(=O)n12)Nc1cc(Cl)c(Cl)cc1Cl`, the GI50 (LXFL 529) is reported as > 10 µM (inactive), the GI50 (DLD-1) is reported as > 10 µM (inactive) and the GI50 (DMS-114) is reported as > 10 µM (inactive). For the same compound, the GI50 (RXF 631) was 71.4 µM (inactive), the GI50 (KM-20L2) was > 10 µM (inactive) and the GI50 (HOP-18) was > 10 µM (inactive). The GI50 (DMS-273) was > 10 µM (inactive), the GI50 (SNB-78) was 84.1 µM (inactive) and the GI50 (XF498) was > 10 µM (inactive).

`CCOC(=O)CNC(SC)=C(C#N)C#N` was tested, and the GI50 (LXFL 529) was > 100 µM (inactive), the GI50 (DLD-1) was > 100 µM (inactive) and the GI50 (DMS-114) was > 100 µM (inactive). For the same compound, the GI50 (KM-20L2) was > 100 µM (inactive), the GI50 (DMS-273) was > 100 µM (inactive) and the GI50 (SNB-78) was > 100 µM (inactive). The GI50 (XF498) was > 100 µM (inactive).

With `CCOC(=O)NNC(=O)NC12CC3CC(CC(C3)C1)C2` the GI50 (LXFL 529) was > 100 µM (inactive), the GI50 (DLD-1) was > 100 µM (inactive) and the GI50 (DMS-114) was > 100 µM (inactive). The GI50 (KM-20L2) was > 100 µM (inactive), the GI50 (HOP-18) was > 100 µM (inactive) and the GI50 (DMS-273) was > 100 µM (inactive). The GI50 (SNB-78) was > 100 µM (inactive) and the GI50 (XF498) was > 100 µM (inactive).

With `COc1ccc(S(=O)(=O)N/N=C/CN2C(=O)c3ccccc3C2=O)cc1` the GI50 (LXFL 529) was > 100 µM (inactive), the GI50 (DLD-1) was > 100 µM (inactive) and the GI50 (KM-20L2) was > 100 µM (inactive). For the same compound, the GI50 (DMS-273) was > 100 µM (inactive) and the GI50 (XF498) was > 100 µM (inactive).

For `CCOC(=O)C(=O)Nc1nc2ccc(C)cc2s1`, the GI50 (LXFL 529) was > 100 µM (inactive), the GI50 (DLD-1) was > 100 µM (inactive) and the GI50 (DMS-114) was > 100 µM (inactive). For the same compound, the GI50 (RXF 631) was > 100 µM (inactive), the GI50 (KM-20L2) was > 100 µM (inactive) and the GI50 (DMS-273) was > 100 µM (inactive). The GI50 (SNB-78) was 87.7 µM (inactive) and the GI50 (XF498) was > 100 µM (inactive).

`Cc1[nH]c2c(C)cccc2c1C1Cc2ccccc2N1` (centres undefined) was tested, and the GI50 (LXFL 529) was 17.6 µM (inactive), the GI50 (DLD-1) was 28.8 µM (inactive) and the GI50 (DMS-114) was 18.2 µM (inactive). For the same compound, the GI50 (KM-20L2) was 17.1 µM (inactive), the GI50 (HOP-18) was 17.8 µM (inactive) and the GI50 (XF498) was 21.1 µM (inactive).

In the case of `COC(=O)/C=C1/CCC(C(=O)OC)N1` (centres undefined), the GI50 (LXFL 529) is reported as > 100 µM (inactive), the GI50 (DLD-1) is reported as > 100 µM (inactive) and the GI50 (DMS-114) is reported as > 100 µM (inactive). The GI50 (KM-20L2) was > 100 µM (inactive), the GI50 (DMS-273) was > 100 µM (inactive) and the GI50 (SNB-78) was > 100 µM (inactive). The GI50 (XF498) was > 100 µM (inactive).

For `COc1ccc(NC(=O)c2oc3cc(O)ccc3c(=O)c2C)c([N+](=O)[O-])c1`, the GI50 (LXFL 529) was > 100 µM (inactive), the GI50 (DLD-1) was > 100 µM (inactive) and the GI50 (DMS-114) was > 100 µM (inactive). The GI50 (KM-20L2) was > 100 µM (inactive), the GI50 (HOP-18) was > 100 µM (inactive) and the GI50 (DMS-273) was > 100 µM (inactive). The GI50 (SNB-78) was > 100 µM (inactive) and the GI50 (XF498) was > 100 µM (inactive).

`CC(=O)Nc1ccc(C2[C@H]3C(=O)N(c4ccc(Cc5ccc(N6C(=O)[C@@H]7ON(c8ccccc8)C(c8ccc(NC(C)=O)cc8)[C@@H]7C6=O)cc5)cc4)C(=O)[C@H]3ON2c2ccccc2)cc1` (some centres undefined) was tested, and the GI50 (LXFL 529) was > 100 µM (inactive), the GI50 (DLD-1) was > 100 µM (inactive) and the GI50 (DMS-114) was > 100 µM (inactive). For the same compound, the GI50 (KM-20L2) was > 100 µM (inactive), the GI50 (HOP-18) was > 100 µM (inactive) and the GI50 (DMS-273) was > 100 µM (inactive). For the same compound, the GI50 (SNB-78) was > 100 µM (inactive).

For `COc1cc2noc(-c3ccccc3)c2cc1OC`, the GI50 (LXFL 529) was 68.4 µM (inactive), the GI50 (DLD-1) was 64 µM (inactive) and the GI50 (DMS-114) was 35.9 µM (inactive). For the same compound, the GI50 (RXF 631) was 20.4 µM (inactive), the GI50 (KM-20L2) was 37.4 µM (inactive) and the GI50 (HOP-18) was > 100 µM (inactive). The GI50 (DMS-273) was 39.6 µM (inactive) and the GI50 (SNB-78) was 73.5 µM (inactive).

For `COc1cc(/C=C2\CCc3ccccc3C2=O)cc(OC)c1OC`, the GI50 (LXFL 529) was 15.2 µM (inactive), the GI50 (DLD-1) was 13.8 µM (inactive) and the GI50 (DMS-114) was 12.5 µM (inactive). For the same compound, the GI50 (RXF 631) was 22.4 µM (inactive), the GI50 (KM-20L2) was 17.2 µM (inactive) and the GI50 (HOP-18) was 13.6 µM (inactive). The GI50 (DMS-273) was 11.9 µM (inactive), the GI50 (SNB-78) was 24 µM (inactive) and the GI50 (XF498) was 17.9 µM (inactive).

In the case of `COc1ccc(C(Cc2cc(OC)c(OC)c(OC)c2)C(=O)O)cc1` (centres undefined), the GI50 (DLD-1) is reported as 51.1 µM (inactive), the GI50 (DMS-114) is reported as 41 µM (inactive) and the GI50 (RXF 631) is reported as > 100 µM (inactive). The GI50 (KM-20L2) was 56 µM (inactive), the GI50 (HOP-18) was > 100 µM (inactive) and the GI50 (DMS-273) was 52.5 µM (inactive). For the same compound, the GI50 (SNB-78) was 60.1 µM (inactive) and the GI50 (XF498) was 40.5 µM (inactive).
